In the supplement of paper PMC11208160:

experiment: recombinant barcode read abundance after kanamycin selection (control-corrected) (log10(CPM+1)); higher = more efficient recombination; sequences stand for … in AGTGCAGAGAAAATCGGCCAGTTTTCTCTGCCTGCAGTCCGCATGCCGT…AGATTTATGCAGCGGACTGCCTTTCTCCCAAAGTGATAAACCGGACAGTATCATGGACCGGTTTTCCCGGTAATCCGTATTTGCAAGGTTGGTTTCACT; site = the 11-nt target
In short: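 For this pooled screen, each oligo contained a promoter, a target, a barcode and the J23119-driven first 104 bases of the bridge RNA. Gibson cloning placed it into a vector supplying the remaining 73 bp and a T7-inducible recombinase, and the pool was co-electroporated into E. coli with a donor plasmid. Recombination efficiency is derived from barcode counts per million at recombinant junctions after averaging and control correction, and is expressed on a log scale as log10(CPM+1), with selection on chloramphenicol/ampicillin/kanamycin plus 0.1 mM IPTG against a chloramphenicol/ampicillin LB agar control.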
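Note: IS621 recombinase and bridge RNA in Escherichia coli cells.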

Sequence	recombinant barcode read abundance (log10)
TCTTGCTCTTGGGTTCTAACCTGTTGCCT (site AGAACTCCTCA)	0.102
CTACCCTCTTGGGTTCTAACCTGTTGCAT (site CTAGCCTCTAT)	0.0456
TCTTGGACTTGGGTTCTAACCTGTTGCTT (site TCTTGGACTTA)	0.138
GACTGGTCTTGGGTTCTAACCTGTTGCCT (site GACTGGTCTAT)	0.364
TCCATCCCTTGGGTTCTAACCTGTTGCTA (site TCCATCCCTTA)	0.605
CGGGCCACTTGGGTTCTAACCTGTTGCGT (site CGGCCCACTCC)	0.175
TCCGACACTTGGGTTCTAACCTGTTGCCT (site TACGACACTAG)	0.227
CTGTCTACTTGGGTTCTAACCTGTTGCCT (site CAGTCTACTAG)	0.0294
AGGATATCTTGGGTTCTAACCTGTTGCCT (site ATGATATCTAG)	0.261
ACGCATCCTTGGGTTCTAACCTGTTGCCT (site ATGCATCCTAG)	0.11
GTCTATGCTTGGGTTCTAACCTGTTGCCT (site GGCTATGCTAG)	0.185
CTATTGTCTTGGGTTCTAACCTGTTGCGC (site CTATTGTCTAC)	0.06
AGGTCACCTTGGGTTCTAACCTGTTGCAT (site AGGTCACCTAC)	0.62
AGTACCTCTTGGGTTCTAACCTGTTGCCT (site AGTACCTCTAG)	0.941
CGGCCGACTTGGGTTCTAACCTGTTGCGG (site CGGCCGACTCC)	2.36
GGGGCTTCTTGGGTTCTAACCTGTTGCTT (site GGGGCGTCTAA)	0.343
TAGTCCTCTTGGGTTCTAACCTGTTGCTG (site TAGTCCTCTGA)	0.14
AGGTAGACTTGGGTTCTAACCTGTTGCTA (site AGGTAGACTTA)	2.44
CGGGCGTCTTGGGTTCTAACCTGTTGCTT (site CGGACGTCTCA)	0.148
TAGAATGCTTGGGTTCTAACCTGTTGCCT (site TAGAATGCTAG)	0.921
ACTCGCTCTTGGGTTCTAACCTGTTGCAC (site GGGACTACTCG)	0.0345
ACAGTCGCTTGGGTTCTAACCTGTTGCCT (site ACAGGCGCTAG)	0

Sequence	recombinant barcode read abundance (log10)
TAGTACTCTTGGGTTCTAACCTGTTGCTT (site TAGTACTCTTA)	0.0259
TCGAGTGCTTGGGTTCTAACCTGTTGCCT (site TCGAGTCCTAG)	0.19
TGATAGCCTTGGGTTCTAACCTGTTGCCT (site AGATAGCCTAG)	0.063
ATCGGGCCTTGGGTTCTAACCTGTTGCCT (site GTCGGGCCTAG)	0.582
GACCGTCCTTGGGTTCTAACCTGTTGCGT (site GACCGTCCTAG)	0.573
AGGATATCTTGGGTTCTAACCTGTTGCCT (site AAGATATCTAG)	0.114
AAGCTTGCTTGGGTTCTAACCTGTTGCCT (site CGATGGACTCA)	0.315
TCAGGCCCTTGGGTTCTAACCTGTTGCCT (site TCAGGCCCTAG)	0.702
AATTCACCTTGGGTTCTAACCTGTTGCCT (site GATTCACCTAG)	0.0262
TTCAAGTCTTGGGTTCTAACCTGTTGCCT (site TTCAAGGCTAG)	0.0708
GTGAGCCCTTGGGTTCTAACCTGTTGCCG (site GTGAGCCCTCG)	1.01
CCGATCACTTGGGTTCTAACCTGTTGCCT (site CGTATCACTAG)	0.034
GTCTCAACTTGGGTTCTAACCTGTTGCCT (site GTCTCAACTAG)	0.604
CTTGACACTTGGGTTCTAACCTGTTGCCT (site CTCGACACTAG)	0.401
CTAAGTCCTTGGGTTCTAACCTGTTGCAT (site CTAAATCCTAT)	0.809
GCATCCACTTGGGTTCTAACCTGTTGCCT (site GCATCCACTAG)	0.938
AGGGAGACTTGGGTTCTAACCTGTTGCCA (site AGGAAGACTTG)	1.63
GGTGCGTCTTGGGTTCTAACCTGTTGCCT (site TGTGCGTCTAG)	0.119
GTCGTCCCTTGGGTTCTAACCTGTTGCCA (site GCCGTCCCTTA)	0.071
GTGAACTCTTGGGTTCTAACCTGTTGCCT (site GTCAACTCTAG)	0.0453
TGTCGGACTTGGGTTCTAACCTGTTGCAG (site TGTCGGACTAT)	0.197
TCTACGTCTTGGGTTCTAACCTGTTGCCT (site TCTACATCTAG)	0.0403

Sequence	recombinant barcode read abundance (log10)
GTGGTACCTTGGGTTCTAACCTGTTGCCT (site GTGGTATCTAG)	0.391
CAGCAGCCTTGGGTTCTAACCTGTTGCTT (site TCCGTTACTCG)	0.0126
CACAAGTCTTGGGTTCTAACCTGTTGCTT (site CACAAGTCTAA)	0.474
TATGTAGCTTGGGTTCTAACCTGTTGCCG (site TATGTAGCTTG)	0.0858
GGGACTACTTGGGTTCTAACCTGTTGCCG (site ACTCGCTCTGT)	0.0845
ACAGCCGCTTGGGTTCTAACCTGTTGCCT (site ACAGACGCTAG)	0.221
CCACTGTCTTGGGTTCTAACCTGTTGCCT (site CCACCGTCTAG)	0.0386
AGTAAGACTTGGGTTCTAACCTGTTGCCT (site AGTAAGACTAA)	0.132
TGTCGGACTTGGGTTCTAACCTGTTGCAG (site TGTCGGACTGT)	0.127
GTTGGGGCTTGGGTTCTAACCTGTTGCGG (site CTTGGGCCTCC)	0.019
CGACGTACTTGGGTTCTAACCTGTTGCCT (site CGTCGTACTAG)	0
CACCGTTCTTGGGTTCTAACCTGTTGCTT (site CACCGTTCTAA)	0.552
TGACACACTTGGGTTCTAACCTGTTGCTG (site TGACACACTCA)	2.22
TCAGACCCTTGGGTTCTAACCTGTTGCCT (site TCAGACCCTAG)	2.31
ATGAGTCCTTGGGTTCTAACCTGTTGCAA (site ATGAGTCCTTT)	1.25
CCTGGTCCTTGGGTTCTAACCTGTTGCAT (site CCTGGACCTAA)	0.195
GACACGCCTTGGGTTCTAACCTGTTGCGT (site GACACGCCTAC)	0.571
CAGGACCCTTGGGTTCTAACCTGTTGCCT (site CATGACCCTAG)	0.409
TAGACATCTTGGGTTCTAACCTGTTGCTC (site TAGGCATCTGA)	0.0149
GAGCGAGCTTGGGTTCTAACCTGTTGCGG (site GAGCGAGCTCA)	0.0195
CTCTTAACTTGGGTTCTAACCTGTTGCGG (site CTCTTAACTCC)	0.536
TTGGATACTTGGGTTCTAACCTGTTGCCA (site TTGGATACTTG)	1.04

Sequence	recombinant barcode read abundance (log10)
CGTCTGACTTGGGTTCTAACCTGTTGCCA (site CGACTGACTAG)	0.158
CGCCCTCCTTGGGTTCTAACCTGTTGCAT (site CGCCTTCCTAT)	0.0322
AGTTCACCTTGGGTTCTAACCTGTTGCTA (site AGTTCACCTTA)	0.0738
TCGAGAGCTTGGGTTCTAACCTGTTGCTA (site TCGAGAGCTTA)	0.446
CACATCTCTTGGGTTCTAACCTGTTGCCT (site CACATATCTAT)	0.0495
TCTCTGCCTTGGGTTCTAACCTGTTGCCT (site TCTCGGCCTAG)	0.108
TCTAAGACTTGGGTTCTAACCTGTTGCGC (site TCTAAGACTGC)	1.26
GATTAGACTTGGGTTCTAACCTGTTGCCT (site CATTAGACTAG)	0.0591
TGTAATACTTGGGTTCTAACCTGTTGCCT (site TGTAATCCTAG)	0.0997
GCACTCTCTTGGGTTCTAACCTGTTGCCT (site GCACACTCTAG)	0.0251
GAGTGGCCTTGGGTTCTAACCTGTTGCGG (site GAGTTGCCTCC)	0.00446
CATAGCCCTTGGGTTCTAACCTGTTGCAT (site CATAGGCCTAT)	0.117
GTACGTACTTGGGTTCTAACCTGTTGCCT (site TTACGTACTAG)	0.777
AGTTGCCCTTGGGTTCTAACCTGTTGCCT (site ACTTGCCCTAG)	0.068
GGAGGAACTTGGGTTCTAACCTGTTGCCT (site GGAGGAACTAG)	2.39
GCCAACCCTTGGGTTCTAACCTGTTGCAT (site GCCAACCCTAA)	0.0781
TAGTTTACTTGGGTTCTAACCTGTTGCCA (site TAGTTTACTTG)	0.334
GAGCGCTCTTGGGTTCTAACCTGTTGCAG (site GAGCGCTCTCT)	1.42
TATCCGACTTGGGTTCTAACCTGTTGCCC (site TATCCGACTAG)	0.238
TGTAATACTTGGGTTCTAACCTGTTGCCT (site TGTAATGCTAG)	0.147
